Experimental data reported in patent US6887873B2, “Triazine derivatives and their application as antitelomerase agents” (Aventis Pharma S.A., priority 2001, dated 2005).
pIC50: −log10 of the molar value.

How the values were obtained:
[1] = test system: human telomerease (HL60 cell extract); experiment: Antitelomerease activity: extension of oligonucleotide TS followed by PCR amplification, with HL60 extract; type: biochemical; conditions: read-out: TRAP IC50
Procedure: The antitelomerease biological activity is determined by the following experimental protocol:
The leukaemia line HL60 is obtained from ATCC (American Type Culture Collection, Rockville, USA). The cells are cultured in suspension in RPMI 1640 medium containing L-glutamine at 2 mM, penicillin 200 U/ml, streptomycin 200 μg/ml, gentamycin 50 μg/ml and supplemented with 10% heat-inactivated foetal calf serum.
An aliquot of 10^5 cells is centrifuged at 3000×G and the supernatant discarded. The cell pellet is resuspended by several successive pipettings in 200 μl of lysis buffer containing 0.5% CHAPS, 10 mM Tris-HCl, pH 7.5, 1 mM MgCl2, 1 mM EGTA, 5 mM β-mercaptoethanol, 0.1 mM PMSF and 10% glycerol and is stored in ice for 30 minutes. The lysate is centrifuged at 160,000×G for 20 minutes at 4° C. and 160 μl of supernatant are recovered. The proteins in the extract are assayed by the Bradford method. The extract is stored at −80° C.
The inhibition of the telomerease activity is determined by a protocol for extension of the oligonucleotide TS (^5′AATCGTTCGAGCAGAGTT^3′), in the presence of a cellular extract enriched in telomerease activity and compounds which are added at various concentrations (10, 1, 0.1 and 0.01 μM). The extension reaction is followed by a PCR amplification of the extension products with the aid of the oligonucleotides TS and CXext (^5′[…]^3′).
The reaction medium is prepared based on the following composition:
The oligonucleotides are obtained from Eurogentec (Belgium) and are stored at −20° C. at a stock concentration of 1 mg/ml in distilled water.
The reaction samples are assembled in 0.2 ml PCR tubes and one drop of paraffin oil is deposited on each of the reactions of the experiment before closing the tubes.
The reaction samples are then incubated in a Cetus 4800-type PCR apparatus under the following temperature conditions: • 15 minutes at 30° C., • 1 minute at 90° C., • followed by 30 cycles of, • 30 seconds at 94° C., • 30 seconds at 50° C., • and 1 minute 30 seconds at 72° C., • followed by a final cycle of 2 minutes at 72° C.
For each of the samples, an aliquot of 10 μl is pipetted under the oil layer and mixed with 5 μl of a loading buffer containing:
The samples are then analysed by electrophoresis on 12% acrylamide gel in a 1×TBE buffer for 1 hour at a voltage of 200 volts, with the aid of a Novex electrophoresis system.
The acrylamide gels are then dried on a sheet of Whatmann 3 mm paper at 80° C. for 1 hour.
The analysis and the quantification of the reaction products are carried out with the aid of an InstantImager apparatus (Pacard).
For each compound concentration tested, the results are expressed as percentage inhibition of the reaction and calculated from the untreated enzymatic control and from the enzyme-free sample (blank) according to the following formula: (compound value−blank value/enzymatic control value−blank value)×100.
The concentration of compound inducing a 50% inhibition of the telomerease reaction (IC50) is determined with the aid of a semilogarithmic graphical representation of the inhibition values obtained as a function of each of the compound concentrations tested.
A compound is considered to be active as an antitelomerease agent when the quantity inhibiting 50% of the telomerease reaction is in particular less than 5 μM.

[2] = test system: G-quadruplex of oligonucleotide GGGTTAGGGTTAGGGTTAGGG (3.5 repeats of the human telomereic motif); experiment: G-quadruplex stabilizing activity, fluorescence Tm (FAM+DABCYL oligonucleotide); type: binding
Description: The G-quadruplex stabilizing activity may be determined by a method using the formation of a complex with fluorescein of which the experimental protocol is described below.
All the nucleotides, modified or otherwise, were synthesized by Eurogentec SA, Seraing, Belgium. The oligonucleotide FAM+DABCYL carries the catalogue reference OL-0371-0802. It has the sequence: […] corresponding to 3.5 repeats of the human telomereic motif (strand rich in G). The fluorescein is attached to the 5′ end, the DABCYL to the 3′ end, by the chemical arms described by Eurogentec. The concentration of the samples is checked by spectrophotometry, recording the absorbance spectrum between 220 and 700 nm and using the molar extinction coefficient provided by the supplier.
All the experiments were carried out in a 10 mM sodium cacodylate buffer pH 7.6 containing 0.1 M lithium chloride (or sodium chloride). The absence of fluorescent contamination in the buffer was checked beforehand. The fluorescent oligonucleotide is added at the final concentration of 0.2 μM.
All the measurements of fluorescence were carried out on a Spex Fluorolog DM1B apparatus, using an excitation line width of 1.8 nm and an emission line width of 4.5 nm. The samples are placed in a microquartz cuvette of 0.2×1 cm. The temperature of the sample is controlled by an external water bath. The oligonucleotide alone was analysed at 20, 30, 40, 50, 60, 70 and 80° C. The emission spectra are recorded using an excitation wavelength of 470 nm. The excitation spectra are recorded using either 515 nm or 588 nm as emission wavelength. The spectra are corrected for the response of the instrument by reference curves. A high extinction (80-90%) of the fluorescence of fluorescein at room temperature is observed, in agreement with an intramolecular folding of the oligonucleotide at 20° C. in the form of a G-quadruplex, which induces juxtaposition of its 5′ and 3′ ends which are respectively linked to fluorescein and to DABCYL. This juxtaposition causes an already-described phenomenon of extinction of fluorescence which is used for “molecular beacons”.
An oligonucleotide stock solution at the strand concentration of 0.2 μM in 0.1 M LiCl, 10 mM cacodylate buffer, pH 7.6, is prepared beforehand, heated briefly at 90° C. and slowly cooled to 20° C., and then distributed in aliquots of 600 μl in the fluorescence cuvettes. 3 μl of water (for the control) or 3 μl of test product (stock at 200 μM, final concentration 1 μM) are then added and mixed. The samples are then allowed to incubate for at least 1 hour at 20° C. before each measurement. The use of longer incubation times (up to 24 hours) has no influence on the result obtained.
Each experiment allows the measurement of only one sample. The latter is first incubated at an initial temperature of 20° C., heated to 80° C. over 38 minutes, left for 5 minutes at 80° C. and then cooled to 20° C. over 62 minutes. During this time, the fluorescence is measured simultaneously at two emission wavelengths (515 nm and 588 nm) using 470 nm as excitation wavelength. A measurement is carried out every 30 seconds. The temperature of the water bath is recorded in parallel, and the fluorescence profile as a function of the temperature is reconstituted from these values. The fluorescence profiles are then normalized between 20° C. and 80° C., and the temperature for which the intensity of emission at 515 nm is the mean of those at high and low temperature is called Tm. Under these conditions, the Tm of the reference sample without addition of product is 44° C. in a lithium chloride buffer. This temperature is increased to more than 55° C. in a sodium chloride buffer. The addition of a G-quadruplex-stabilizing compound induces an increase in the Tm. This increase is judged to be significant if it is greater than 3°.

Structure (SMILES) | pIC50 [1] | G4 delta Tm [2]
CCN(CC)CCN(CCN(CC)CC)c1nc(Nc2ccc3nc(C)cc(N)c3c2)nc(Nc2ccc3nc(C)cc(N)c3c2)n1 [Example 40] | 6.64 | 19 °C
Cc1cc(N(C)C)c2cc(Nc3nc(Nc4ccc5nc(C)cc(N(C)C)c5c4)nc(NC(CO)C(=O)O)n3)ccc2n1 (stereo not shown) [Example 171] | 6.31 | 13 °C
Cc1cc(N)c2cc(Nc3nc(NCc4ccc(Cl)cc4)nc(Nc4ccc5nc(C)cc(N)c5c4)n3)ccc2n1 [Example 67] | 6.37 | 6.5 °C
Cc1cc(N)c2cc(Nc3nc(NCc4ccccn4)nc(Nc4ccc5nc(C)cc(N)c5c4)n3)ccc2n1 [Example 49] | 6.00 | 10 °C
Cc1cc(N)c2cc(Nc3nc(Nc4ccccc4Cl)nc(N4CCN(C)CC4)n3)ccc2n1 [Example 8] | 5.49 | 1.5 °C
Cc1cc(N)c2cc(Nc3nc(Nc4ccc5nc(C)cc(N)c5c4)nc(N4CCN(CCOCCO)CC4)n3)ccc2n1 [Example 69] | 6.80 | 18 °C
Cc1cc(N)c2cc(Nc3nc(NCCN(C)C)nc(Nc4ccccc4Cl)n3)ccc2n1 [Example 5] | 5.57 | 2.0 °C
Cc1cc(N)c2cc(Nc3nc(Nc4ccc5nc(C)cc(N)c5c4)nc(N4CCC(O)CC4)n3)ccc2n1 [Example 155] | 6.41 | 14 °C
Cc1cc(N(C)C)c2cc(Nc3nc(Nc4ccc5nc(C)cc(N(C)C)c5c4)nc(N4CCC(O)CC4)n3)ccc2n1 [Example 164] | 5.80 | 12.5 °C
Cc1cc(N)c2cc(Nc3nc(Nc4ccc5nc(C)cc(N)c5c4)nc(Oc4cccc5ccccc45)n3)ccc2n1 [Example 107] | 6.43 | 4.5 °C
CCN(CC)CCSc1nc(Nc2ccc3nc(C)cc(N)c3c2)nc(Nc2ccc3nc(C)cc(N)c3c2)n1 [Example 130] | 6.52 | 9 °C
Cc1cc(N)c2cc(Nc3nc(Nc4ccc5nc(C)cc(N)c5c4)nc(Oc4ccc5ccccc5c4)n3)ccc2n1 [Example 108] | 6.43 | 3 °C
COc1cccc(Sc2nc(Nc3ccc4nc(C)cc(N)c4c3)nc(Nc3ccc4nc(C)cc(N)c4c3)n2)c1 [Example 122] | 6.43 | 13.5 °C
Cc1cc(N(C)C)c2cc(Nc3nc(Nc4ccc5nc(C)cc(N(C)C)c5c4)nc(N4CCC(O)C4)n3)ccc2n1 (stereo not shown) [Example 162] | 5.77 | 17 °C
Cc1cc(N)c2cc(Nc3nc(Nc4ccncc4)nc(Nc4ccc5nc(C)cc(N)c5c4)n3)ccc2n1 [Example 10] | 6.44 | 8.9 °C
Cc1cc(N)c2cc(Nc3nc(Nc4ccc5nc(C)cc(N)c5c4)nc(N4CCCC(O)C4)n3)ccc2n1 (stereo not shown) [Example 160] | 6.44 | 10.5 °C
COc1cccc(CNc2nc(Nc3ccc4nc(C)cc(N)c4c3)nc(Nc3ccc4nc(C)cc(N)c4c3)n2)c1 [Example 52] | 5.89 | 6.5 °C
Cc1cc(N(C)C)c2cc(Nc3nc(NCCO)nc(Nc4ccc5nc(C)cc(N(C)C)c5c4)n3)ccc2n1 [Example 167] | 5.96 | 6 °C
Cc1cc(N(C)C)c2cc(Nc3nc(Nc4ccc5nc(C)cc(N(C)C)c5c4)nc(N(CCO)CCO)n3)ccc2n1 [Example 161] | 5.72 | 12 °C
Cc1cc(N)c2cc(Nc3nc(NCCCN(C)C)nc(Nc4ccc5nc(C)cc(N(C)C)c5c4)n3)ccc2n1 [Example 9] | 7.00 | 10.0 °C
Cc1cc(C)nc(Oc2nc(Nc3ccc4nc(C)cc(N)c4c3)nc(Nc3ccc4nc(C)cc(N)c4c3)n2)n1 [Example 109] | 6.47 | 4.5 °C
Cc1cc(N)c2cc(Nc3nc(Nc4ccc5nc(C)cc(N)c5c4)nc(Oc4ncccn4)n3)ccc2n1 [Example 111] | 6.32 | 23.5 °C
CC(=O)NCCNc1nc(Nc2ccc3nc(C)cc(N)c3c2)nc(Nc2ccc3nc(C)cc(N)c3c2)n1 [Example 35] | 6.30 | 11.0 °C
Cc1cc(N(C)C)c2cc(Nc3nc(Nc4ccc5nc(C)cc(N(C)C)c5c4)nc(NC(CO)CO)n3)ccc2n1 [Example 170] | 5.89 | 3 °C
CCN(CC)CCN1CCN(c2nc(Nc3ccc4nc(C)cc(N)c4c3)nc(Nc3ccc4nc(C)cc(N)c4c3)n2)CC1 [Example 44] | 7.00 | 17 °C
COCCN1CCN(c2nc(Nc3ccc4nc(C)cc(N)c4c3)nc(Nc3ccc4nc(C)cc(N)c4c3)n2)CC1 [Example 73] | 6.43 | 9.5 °C
Cc1cc(N)c2cc(Nc3nc(NCC[N+](C)(C)C)nc(Nc4ccc5nc(C)cc(N)c5c4)n3)ccc2n1 [Example 54] | 6.77 | 16 °C
CCN(CCSc1nc(Nc2ccc3nc(C)cc(N)c3c2)nc(Nc2ccc3nc(C)cc(N)c3c2)n1)Cc1ccccc1 [Example 131] | 6.04 | 4.5 °C
Cc1cc(N)c2cc(Nc3nc(Nc4ccc5nc(C)cc(N)c5c4)nc(Nc4cccc5cn[nH]c45)n3)ccc2n1 [Example 56] | 6.46 | 2.5 °C
